Assay results reported in ChEMBL document CHEMBL3112512, “Microwave induced three-component synthesis and antimycobacterial activity of benzopyrazolo[3,4-b]quinolindiones” (2014).
≈ marks a conversion by molar mass, not a printed value.

Assays:
Type in all cases: functional
[1] = test system: Mycolicibacterium fortuitum; assay: Antimycobacterial activity against Mycobacterium fortuitum MNT1073 clinical isolate by MTT assay
[2] = test system: Mycobacterium scrofulaceum; assay: Antimycobacterial activity against Mycobacterium scrofulaceum MNT1193 clinical isolate by MTT assay
Mycobacterium szulgai = assay: Antimycobacterial activity against Mycobacterium szulgai MNT1100 clinical isolate by MTT assay
Mycobacteroides chelonae = assay: Antimycobacterial activity against Mycobacterium chelonae MNT1407 clinical isolate by MTT assay
[3] = test system: Mycobacterium tuberculosis; assay: Antimycobacterial activity against streptomycin, isoniazid, rifampicin, ethambutol and pirazynamide-susceptible Mycobacterium tuberculosis H37Rv ATCC 27294 by MTT assay
[4] = test system: Mycobacterium intracellulare; assay: Antimycobacterial activity against Mycobacterium intracellulare MNT1408 clinical isolate by MTT assay

| SMILES | MIC [1] [mg/L] | MIC [2] [mg/L] | MIC (Mycobacterium szulgai) [mg/L] | MIC (Mycobacteroides chelonae) [mg/L] | MIC [3] [mg/L] | MIC [4] [mg/L] |
| --- | --- | --- | --- | --- | --- | --- |
| COc1cc(-c2c3c(nc4c2c(C)nn4-c2ccccc2)-c2ccccc2C(=O)C3=O)cc(OC)c1OC | > 32 | > 32 | > 32 | > 32 | > 32 | > 32 |
| O=C1C(=O)c2ccccc2C2=C1C(c1ccccc1)c1c(-c3ccc([N+](=O)[O-])cc3)n[nH]c1N2 (stereo not given) | > 32 | > 32 | > 32 | > 32 | 32 (≈ 71.4 µM) | > 32 |
| CO[C@H]1/C=C/O[C@@]2(C)Oc3c(C)c(O)c4c(O)c(c(/C=N/N5CCN(C)CC5)c(O)c4c3C2=O)NC(=O)/C(C)=C\C=C\[C@H](C)[C@H](O)[C@@H](C)[C@@H](O)[C@@H](C)[C@H](OC(C)=O)[C@@H]1C [RIFAMPIN] | > 0.5 | > 0.5 | > 0.5 | 0.125 (≈ 0.152 µM) | 0.125 (≈ 0.152 µM) | > 0.5 |
| COc1ccc(C2C3=C(Nc4[nH]nc(-c5ccccc5)c42)c2ccccc2C(=O)C3=O)cc1 (stereo not given) | > 32 | > 32 | > 32 | > 32 | > 32 | > 32 |
| Cc1nn(-c2ccccc2)c2nc3c(c(-c4ccccc4)c12)C(=O)C(=O)c1ccccc1-3 | > 32 | > 32 | > 32 | > 32 | ≤ 2 | > 32 |
| O=C1C(=O)c2ccccc2C2=C1C(c1ccccc1)c1c(-c3ccccc3)n[nH]c1N2 (stereo not given) | > 32 | > 32 | > 32 | > 32 | > 32 | > 32 |
| Cc1ccc(-c2n[nH]c3nc4c(c(-c5ccc([N+](=O)[O-])cc5)c23)C(=O)C(=O)c2ccccc2-4)cc1 | > 32 | > 32 | > 32 | > 32 | > 32 | > 32 |
| O=C1C(=O)c2ccccc2C2=C1C(c1ccccc1)c1c(-c3ccc(Cl)cc3)n[nH]c1N2 (stereo not given) | > 32 | > 32 | > 32 | > 32 | > 32 | > 32 |
| Cc1ccc(C2C3=C(Nc4[nH]nc(-c5ccccc5)c42)c2ccccc2C(=O)C3=O)cc1 (stereo not given) | > 32 | > 32 | > 32 | > 32 | > 32 | > 32 |
| Cc1nn(-c2ccccc2)c2nc3c(c(-c4ccc(F)cc4)c12)C(=O)C(=O)c1ccccc1-3 | > 32 | > 32 | > 32 | > 32 | 4 (≈ 9.23 µM) | > 32 |
| Cc1nn(-c2ccccc2)c2nc3c(c(-c4ccc(Cl)cc4)c12)C(=O)C(=O)c1ccccc1-3 | > 32 | > 32 | > 32 | > 32 | > 32 | > 32 |
| Cc1ccc(-c2c3c(nc4c2c(C)nn4-c2ccccc2)-c2ccccc2C(=O)C3=O)cc1 | > 32 | > 32 | > 32 | > 32 | 4 (≈ 9.31 µM) | > 32 |
| NNC(=O)c1ccncc1 [ISONIAZID] | > 0.5 | > 0.5 | > 0.5 | > 0.5 | 0.25 (≈ 1.82 µM) | > 0.5 |
| COc1ccc(-c2c3c(nc4[nH]nc(-c5ccc(Cl)cc5)c24)-c2ccccc2C(=O)C3=O)cc1 | > 32 | > 32 | > 32 | > 32 | > 32 | > 32 |
| Cc1ccc(-c2n[nH]c3c2C(c2ccccc2)C2=C(N3)c3ccccc3C(=O)C2=O)cc1 (stereo not given) | > 32 | > 32 | > 32 | > 32 | 16 (≈ 38.3 µM) | > 32 |
